Read-outs that look alike come from different tables or passages of the source.
What was measured:
[1] = physchem; settings: pH 7.4
[2] = pH 7.4
[3] = cited from earlier work
[4] = shake flask, pH 7.4, average literature value

Row | Structure (SMILES) | logD at 90 min [1] | Literature LogD [3, 4] | further results
1 | COC1=CC(=O)C[C@@H](C)[C@]12Oc1c(Cl)c(OC)cc(OC)c1C2=O [Griseofulvin] | 2.19 | – | –
2 | NC(=O)N1c2ccccc2C=Cc2ccccc21 [Carbamazepine] | 1.59 | – | –
3 | Cn1c(=O)c2[nH]cnc2n(C)c1=O [Theophyline] | – | – | CAMDIS FBP LogD [2]: −0.16; Literature LogD ([3]; pH 7.4): −0.02
4 | C=CCc1ccccc1OCC(O)CNC(C)C (centres unmarked) [Alprenolol] | 1.03 | 0.88 | –
5 | COCCc1ccc(OCC(O)CNC(C)C)cc1 (centres unmarked) [Metoprolol] | 0.06 | −0.17 | –
6 | CN1CCCCC1CCN1c2ccccc2Sc2ccc([S+](C)[O-])cc21 (centres unmarked) [Mesoridazine] | 1.74 | 1.81 | –
7 | CN(C)CCC=C1c2ccccc2CCc2ccccc21 [Amitriptyline] | 2.87 | 2.79 | –
8 | CC(C)Cc1ccc(C(C)C(=O)O)cc1 (centres unmarked) [Ibuprofen] | 0.97 | 1.27 | –
9 | CC(C(=O)O)c1cccc(C(=O)c2ccccc2)c1 (centres unmarked) [Ketoprofen] | – | −0.23 | –
10 | CCCSc1ccc2nc(NC(=O)OC)[nH]c2c1 [Albendazole] | 3.41 | 3.29 | –
11 | CC(C(=O)O)c1ccc(-c2ccccc2)c(F)c1 (centres unmarked) [Flurbiprofen] | 0.8 | 0.91 | –
12 | CCC1(c2ccccc2)C(=O)NCNC1=O [Primidone] | 0.74 | 0.91 | –
13 | COCCOC(=O)C1=C(C)NC(C)=C(C(=O)OC(C)C)C1c1cccc([N+](=O)[O-])c1 (centres unmarked) [Nimodipine] | 3.95 | 4.18 | –
14 | C[C@@H]1C[C@H]2[C@@H]3CCC4=CC(=O)C=C[C@]4(C)[C@@]3(F)[C@@H](O)C[C@]2(C)[C@@]1(O)C(=O)CO [Dexamethason] | – | – | CAMDIS FBP LogD [2]: 1.82; Literature LogD ([3]; pH 7.4): 1.82
15 | COc1ccc2c(c1)c(CC(=O)O)c(C)n2C(=O)c1ccc(Cl)cc1 [Indomethacin] | 0.87 | 0.76 | –
16 | C[C@]12CC[C@H]3[C@@H](CCC4=CC(=O)CC[C@@]43C)[C@@H]1CC[C@@H]2O [Testosterone] | – | – | Literature LogD ([3]; pH 7.4): 3.23
17 | NS(=O)(=O)c1cc(C2(O)NC(=O)c3ccccc32)ccc1Cl (centres unmarked) [Chlorthalidone] | 0.9 | – | –
18 | CC(=O)[C@H]1CC[C@H]2[C@@H]3CCC4=CC(=O)CC[C@]4(C)[C@H]3CC[C@]12C [Progesterone] | – | – | Literature LogD ([3]; pH 7.4): 3.76
19 | Cc1ncc([N+](=O)[O-])n1CCO [Metronidazole] | -0.22 | −0.07 | –
20 | O=C1NC(=O)C(c2ccccc2)(c2ccccc2)N1 [Phenytoin] | 2.32 | 2.23 | –
21 | CC(=O)Nc1ccc(O)cc1 [Paracetamol] | – | 0.3 | –
22 | CN(C)CCCN1c2ccccc2Sc2ccc(Cl)cc21 [Chlorpromazine] | 3.26 | 3.16 | –
23 | CCCC(C)(COC(N)=O)COC(N)=O [Meprobamate] | – | – | logD [1]: 0.76; Literature LogD ([3]; pH 7.4): 0.7
24 | CC(CCc1ccccc1)NCC(O)c1ccc(O)c(C(N)=O)c1 (centres unmarked) [Labetalol] | 1.08 | 1.09 | –
25 | C[C@]12C=CC(=O)C=C1CC[C@@H]1[C@@H]2[C@@H](O)C[C@@]2(C)[C@H]1CC[C@]2(O)C(=O)CO [Prednisolone] | 1.53 | 1.45 | –
26 | CN(C)CCCN1c2ccccc2CCc2ccc(Cl)cc21 [Clomipramine] | 3.46 | 3.28 | –
27 | O=C(O)Cc1ccccc1Nc1c(Cl)cccc1Cl [Diclofenac] | 1.12 | 1.14 | –
28 | COc1ccc(Cl)cc1C(=O)NCCc1ccc(S(=O)(=O)NC(=O)NC2CCCCC2)cc1 [Glyburide] | – | 2.19 | –
29 | CC(=O)CC(c1ccccc1)c1c(O)c2ccccc2oc1=O (centres unmarked) [Warfarin] | – | – | logD [1]: 0.87; Literature LogD ([3]; pH 7.4): 1.12

From patent US20240280594A1, “MULTIWELL PLATE LIPOPHILICITY ASSAY” (Hoffmann-La Roche Inc., priority 2021, published 2024)
